The target of one data set is T1, human Granzyme B (hGzmB) (Homo sapiens, UniProt P10144).
T1 construct: purchased Froelich Lab, Northshore University Health Systems Research Institute, Evanston, Ill., USA
Nature of the data set: Human Granzyme B enzymatic inhibition assay (fluorogenic, kinetic). Format: biochemical. The following applies: activity codes, Table 7; read-out: IC50 Activity Range. In outline:
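Human Granzyme B preincubated with compound for 30 min total (5 min shaking, 20 min bench, then reaction temperature). Fluorogenic substrate added and read kinetically, 25 cycles at 1-min intervals. Percent inhibition at one or two concentrations or 8–12-point 3-fold dose response from 20 uM, replicates, with IC50 by non-linear regression.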

Data set [1] is described as follows: Kinetic solubility determination in PBS. Format: physicochemical. To be noted: phosphate buffered saline (PBS 1×), 21 °C, pH 7.4, aqueous buffer, kinetic from dmso stock, PBS 1X pH 7.4, 2.0% DMSO, 24 hour incubation at ambient temperature. In outline: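 DMSO stocks were diluted into PBS (1×) pH 7.4 to 2.0% final DMSO and a maximum theoretical concentration of typically 200 μM. After 24 hour incubation at ambient temperature (20.5-21.7° C.), samples were vacuum filtered. The filtrate was quantified by chemiluminescent nitrogen detection against a nitrogen calibration curve, with background-corrected values given in μM and μg/mL.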

The mark [2] stands for this setting: read-out: Solubility in aqueous PBS Buffer (1X, pH 7.4).
The mark [3] stands for this setting: read-out: Solubility in aqueous PBS Buffer (1X, pH 7.4), ug/mL.

Read-outs that look alike come from different tables or passages of the source.

T1 sequence (P10144 21-247): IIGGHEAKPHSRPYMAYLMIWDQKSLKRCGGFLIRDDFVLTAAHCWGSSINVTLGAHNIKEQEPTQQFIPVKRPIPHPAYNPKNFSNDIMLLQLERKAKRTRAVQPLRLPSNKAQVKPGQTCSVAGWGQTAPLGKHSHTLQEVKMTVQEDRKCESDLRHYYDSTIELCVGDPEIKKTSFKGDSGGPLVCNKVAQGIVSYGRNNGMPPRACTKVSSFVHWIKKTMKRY

Broadly, the IC50 is the point on the concentration scale where inhibition reaches its midpoint. As for `CC[C@H](C)[C@H](NC(=O)Cc1ccc(CC(=O)O)cc1)C(=O)NCC(=O)N1c2ccccc2C[C@H]1C(=O)NCc1nn[nH]n1` [Example A34, 2-[4-({[(1S,2S)-2-Methyl-1-({2-Oxo-2-[(2S)-2-[(2H-1,2,3,4-Tetrazol-5-Ylmethyl)Carbamoyl]-2,3-Dihydro-1H-Indol-1-Yl]Ethyl}Carbamoyl)Butyl]Carbamoyl}Methyl)Phenyl]Acetic Acid], the concentration for half-maximal inhibition (IC50) at human Granzyme B (hGzmB) is < 100 nM. The solubility at 24 h was > 750 µM in data set [1] (setting [2]) and > 443 µg/mL in data set [1] (setting [3]).
`CC[C@H](C)[C@H](NC(=O)C(F)(F)C(F)(F)C(=O)O)C(=O)NCC(=O)N1c2ccccc2C[C@H]1C(=O)NCc1nn[nH]n1` [Example A43, 2,2,3,3-Tetrafluoro-3-{[(1S,2S)-2-Methyl-1-({2-Oxo-2-[(2S)-2-[(2H-1,2,3,4-Tetrazol-5-Ylmethyl)Carbamoyl]-2,3-Dihydro-1H-Indol-1-Yl]Ethyl}Carbamoyl)Butyl]Carbamoyl}Propanoic Acid]: at human Granzyme B (hGzmB), the IC50 was < 100 nM. The figures for the solubility at 24 h in data set [1] (setting [2]) and in data set [1] (setting [3]) were 583 µM and 342 µg/mL, respectively.
On to `CC[C@H](C)[C@H](NC(=O)CN(C)CC(=O)O)C(=O)NCC(=O)N1c2ccccc2C[C@H]1C(=O)NCc1nn[nH]n1` [Example A44, 2-[Methyl({[(1S,2S)-2-Methy-1-({2-Oxo-2-[(2S)-2-[(2H-1,2,3,4-Tetrazol-5-Ylmethyl)Carbamoyl]-2,3-Dihydro-1H-Indol-1-Yl]Ethyl}Carbamoyl)Butyl]Carbamoyl}Methyl)Amino]Acetic Acid], for which the IC50 on human Granzyme B (hGzmB) was in the range of 100 to 1000 nM. Also, the values for the solubility at 24 h in data set [1] (setting [2]) and in data set [1] (setting [3]) were 724 µM and 467 µg/mL, respectively.
As to `O=C(O)CCC(=O)N[C@H](C(=O)NCC(=O)N1c2ccccc2C[C@H]1C(=O)NCc1nn[nH]n1)C1CCCC1` [Example A45, 3-{[(S)-Cyclopentyl({2-Oxo-2-[(2S)-2-[(2H-1,2,3,4-Tetrazol-5-Ylmethyl)Carbamoyl]-2,3-Dihydro-1H-Indol-1-Yl]Ethyl}Carbamoyl)Methyl]Carbamoyl}Propanoic Acid], the IC50 at human Granzyme B (hGzmB) is < 100 nM. In addition, the values for the solubility at 24 h in data set [1] (setting [2]) and in data set [1] (setting [3]) were 682 µM and 359 µg/mL, respectively.
The matching figures for `CC(C)[C@H](NC(=O)CCC(=O)O)C(=O)NCC(=O)N1c2ccccc2C[C@H]1C(=O)NCc1nn[nH]n1` [Example A46, 3-{[(1S)-2-Methyl-1-({2-Oxo-2-[(2S)-2-[(2H-1,2,3,4-Tetrazol-5-Ylmethyl)Carbamoyl]-2,3-Dihydro-1H-Indol-1-Yl]Ethyl}Carbamoyl)Propyl]Carbamoyl}Propanoic Acid]: < 100 nM, > 750 µM and > 375 µg/mL.
In the same order, the values of `CC[C@H](C)[C@H](NC(=O)CCC(C)(C)C(=O)O)C(=O)NCC(=O)N1c2ccccc2C[C@H]1C(=O)NCc1nn[nH]n1` [Example A52, 2,2-Dimethyl-4-{[(1S,2S)-2-Methyl-1-({2-Oxo-2-[(2S)-2-[(2H-1,2,3,4-Tetrazol-5-Ylmethyl)Carbamoyl]-2,3-Dihydro-1H-Indol-1-Yl]Ethyl}Carbamoyl)Butyl]Carbamoyl}Butanoic Acid] are < 100 nM, > 750 µM and > 418 µg/mL.
The matching figures for `CC[C@H](C)[C@H](NC(=O)CC(C)(C)C(=O)O)C(=O)NCC(=O)N1c2ccccc2C[C@H]1C(=O)NCc1nn[nH]n1` [Example A53, 2,2-Dimethyl-3-{[(1S,2S)-2-Methyl-1-({2-Oxo-2-[(2S)-2-[(2H-1,2,3,4-Tetrazol-5-Ylmethyl)Carbamoyl]-2,3-Dihydro-1H-Indol-1-Yl]Ethyl}Carbamoyl)Butyl]Carbamoyl}Propanoic Acid]: < 100 nM, > 750 µM and > 407 µg/mL.
Consider `CC[C@H](C)[C@H](NC(=O)C(C)(C)CCC(=O)O)C(=O)NCC(=O)N1c2ccccc2C[C@H]1C(=O)NCc1nn[nH]n1` [Example A55, 4,4-Dimethyl-4-{[(1S,2S)-2-Methyl-1-({2-Oxo-2-[(2S)-2-[(2H-1,2,3,4-Tetrazol-5-Ylmethyl)Carbamoyl]-2,3-Dihydro-1H-Indol-1-Yl]Ethyl}Carbamoyl)Butyl]Carbamoyl}Butanoic Acid], for which the IC50 at human Granzyme B (hGzmB) is < 100 nM. For the same compound, the results for the solubility at 24 h in data set [1] (setting [2]) and in data set [1] (setting [3]) were > 750 µM and > 418 µg/mL, respectively.
In the same order, the values of `CC[C@H](C)[C@H](NC(=O)C(C)(C)CC(=O)O)C(=O)NCC(=O)N1c2ccccc2C[C@H]1C(=O)NCc1nn[nH]n1` [Example A56, 3,3-Dimethyl-3-{[(1S,2S)-2-Methyl-1-({2-Oxo-2-[(2S)-2-[(2H-1,2,3,4-Tetrazol-5-Ylmethyl)Carbamoyl]-2,3-Dihydro-1H-Indol-1-Yl]Ethyl}Carbamoyl)Butyl]Carbamoyl}Propanoic Acid] are < 100 nM, > 750 µM and > 407 µg/mL.
As to `CC[C@H](C)[C@H](NC(=O)Cc1ccccc1)C(=O)NCC(=O)N1c2ccccc2C[C@H]1C(=O)NCc1c[nH]nn1` [Example B1, (2S)-1-{2-[(2S,3S)-3-Methyl-2-(2-Phenylacetamido)Pentanamido]Acetyl}-N-(1H-1,2,3-Triazol-4-Ylmethyl)-2,3-Dihydro-1H-Indole-2-Carboxamide], the IC50 on human Granzyme B (hGzmB) fell in the range of 100 to 1000 nM. Also, the figures for the solubility at 24 h in data set [1] (setting [2]) and in data set [1] (setting [3]) were 97 µM and 62 µg/mL, respectively.
`CC(C)[C@H](NC(=O)Cc1ccccc1)C(=O)NCC(=O)N1c2ccccc2C[C@H]1C(=O)NCc1nn[nH]n1` [Example C1, (2S)-1-{2-[(2S)-3-Methyl-2-(2-Phenylacetamido)Butanamido]Acetyl}-N-(2H-1,2,3,4-Tetrazol-5-Ylmethyl)-2,3-Dihydro-1H-Indole-2-Carboxamide]: the IC50 on human Granzyme B (hGzmB) lay in the range of 100 to 1000 nM. Further, the solubility at 24 h in data set [1] (setting [2]) is > 150 µM; in data set [1] (setting [3]), > 78 µg/mL.
In the case of `CC[C@H](C)[C@H](NC(=O)Cc1ccccc1)C(=O)N[C@@H](C)C(=O)N1c2ccccc2C[C@H]1C(=O)NCc1nn[nH]n1` [Example C11, (2S)-1-[(2S)-2-[(2S,3S)-3-Methyl-2-(2-Phenylacetamido)Pentanamido]Propanoyl]-N-(2H-1,2,3,4-Tetrazol-5-Ylmethyl)-2,3-Dihydro-1H-Indole-2-Carboxamide], the half-maximal inhibitory concentration (IC50) on human Granzyme B (hGzmB) was in the range of 1000 to 10000 nM. Also, the solubility at 24 h in data set [1] (setting [2]) is 125 µM; in data set [1] (setting [3]), 68 µg/mL.
In the same order, the values of `CC[C@H](C)[C@H](NC(=O)Cc1ccccc1)C(=O)N[C@H](C)C(=O)N1c2ccccc2C[C@H]1C(=O)NCc1nn[nH]n1` [Example C12, (2S)-1-[(2R)-2-[(2S,3S)-3-Methyl-2-(2-Phenylacetamido)Pentanamido]Propanoyl]-N-(2H-1,2,3,4-Tetrazol-5-Ylmethyl)-2,3-Dihydro-1H-Indole-2-Carboxamide] are > 10000 nM, 112 µM and 61 µg/mL.
The matching figures for `CC[C@H](C)[C@H](NC(=O)Cc1ccccc1)C(=O)N[C@@H](CCC(=O)O)C(=O)N1c2ccccc2C[C@H]1C(=O)NCc1nn[nH]n1` [Example C13, (4S)-4-[(2S,3S)-3-Methyl-2-(2-Phenylacetamido)Pentanamido]-5-Oxo-5-[(2S)-2-[(2H-1,2,3,4-Tetrazol-5-Ylmethyl)Carbamoyl]-2,3-Dihydro-1H-Indol-1-Yl]Pentanoic Acid]: 100 to 1000 nM, > 750 µM and > 454 µg/mL.
For the compound `CC[C@H](C)[C@H](NC(=O)Cc1ccccc1)C(=O)NCC(=O)N1c2cc(N)ccc2C[C@H]1C(=O)NCc1nn[nH]n1` [Example C20, (2S)-6-Amino-1-{2-[(2S,3S)-3-Methyl-2-(2-Phenylacetamido)Pentanamido]Acetyl}-N-(2H-1,2,3,4-Tetrazol-5-Ylmethyl)-2,3-Dihydro-1H-Indole-2-Carboxamide], the IC50 at human Granzyme B (hGzmB) fell in the range of 100 to 1000 nM. In addition, the solubility at 24 h came out at 596 µM in data set [1] (setting [2]) and 348 µg/mL in data set [1] (setting [3]).
The matching figures for `CC[C@H](C)[C@H](NC(=O)Cc1ccccc1)C(=O)NCC(=O)N1c2cc(NC(=O)CCC(=O)O)ccc2C[C@H]1C(=O)NCc1nn[nH]n1` [Example C22, 3-{[(2S)-1-{2-[(2S,3S)-3-Methyl-2-(2-Phenylacetamido)Pentanamido]Acetyl}-2-[(2H-1,2,3,4-Tetrazol-5-Ylmethyl)Carbamoyl]-2,3-Dihydro-1H-Indol-6-Yl]Carbamoyl}Propanoic Acid]: < 100 nM, > 750 µM and > 486 µg/mL.
Consider `O=C(O)CCC(=O)N[C@H](C(=O)NCC(=O)N1c2ccccc2C[C@H]1C(=O)NCc1nn[nH]n1)c1cccs1` [Example C24, 3-{[(R)-({2-Oxo-2-[(2S)-2-[(2H-1,2,3,4-Tetrazol-5-Ylmethyl)Carbamoyl]-2,3-Dihydro-1H-Indol-1-Yl]Ethyl}Carbamoyl)(Thiophen-2-Yl)Methyl]Carbamoyl}Propanoic Acid], for which the IC50 at human Granzyme B (hGzmB) is 100 to 1000 nM. Also, the solubility at 24 h is > 750 µM in data set [1] (setting [2]) and > 405 µg/mL in data set [1] (setting [3]).
Regarding `CC[C@H](C)[C@H](NC(=O)Cc1ccccc1)C(=O)NCC(=O)N1c2cc(NC(C)=O)ccc2C[C@H]1C(=O)NCc1nn[nH]n1` [Example C27, (2S)-6-Acetamido-1-{2-[(2S,3S)-3-Methyl-2-(2-Phenylacetamido)Pentanamido]Acetyl}-N-(2H-1,2,3,4-Tetrazol-5-Ylmethyl)-2,3-Dihydro-1H-Indole-2-Carboxamide], the IC50 at human Granzyme B (hGzmB) is 100 to 1000 nM. Besides, the solubility at 24 h in data set [1] (setting [2]) was > 750 µM; in data set [1] (setting [3]) it was > 442 µg/mL.

These data come from patent US10329324B2 (viDA Therapeutics Inc., priority 2013, dated 2019).
